N#CCC(N)=O
solubility (mole fraction)
Conditions | 283.15 K | 288.15 K | 293.15 K | 298.15 K | 303.15 K | 308.15 K | 313.15 K | 318.15 K | 323.15 K
in ethanol | 0.00653 | 0.00898 | 0.0107 | 0.0129 | 0.0157 | 0.0188 | 0.0233 | 0.0281 | 0.0362
in isopropanol | 0.00409 | 0.00548 | 0.00648 | 0.00816 | 0.0103 | 0.0135 | 0.0168 | 0.0197 | 0.024
in methanol | 0.0186 | 0.0227 | 0.0273 | 0.0332 | 0.0401 | 0.048 | 0.0565 | 0.0684 | 0.08
in n-propanol | 0.00345 | 0.00421 | 0.00565 | 0.0072 | 0.0091 | 0.0115 | 0.0146 | 0.0181 | 0.0229
in water | 0.0171 | 0.0221 | 0.0304 | 0.039 | 0.0505 | 0.0651 | 0.086 | 0.11 | 0.131

Source: BigSolDB 2.1
